Assay results taken from US20140031388A1, “AKT INACTIVATION BY TOCOPHERYL DERIVATIVES” (priority 2012, published 2014).
Like-named read-outs stand apart in the source and are kept apart here.

Experiments:
PC-3 cells = experiment: MTT viability assay, PC-3; format: cell-based; conditions: Homo sapiens
Description: (§1) The prostate cancer cell lines, LNCaP and PC-3, were purchased from American Type Culture Collection (Manassas, Va.) and maintained in RPMI 1640 medium containing 10% heat-inactivated fetal bovine serum at 37° C. in a humidified incubator containing 5% CO2. The LNCaP-abl cells were a generous gift from Dr. Qianben Wang (The Ohio State University). Normal prostate epithelial cells were purchased from Lonza (Walkersville, Md.) and were cultured in the vendor-recommended defined prostate epithelial cell growth medium. For experiments, LNCaP cells were plated on poly-D-lysine-coated culture flasks at a density of 12,000 cells per cm^2 surface area for 24 hours, followed by treatment with test agents in serum-free RPMI 1640 medium. The α- and γ-tocopherols were purchased from Sigma-Aldrich (St. Louis, Mo.). The tocopherol derivatives, α- and γ-VE5, were synthesized by the inventors.
(§2) LNCaP cells were plated into poly-D-lysine-coated 96-well plates and PC-3 and LNCaP-abl cells into uncoated plates at the density of 5,000 cells per well in the presence of 10% FBS. Normal prostate epithelial cells were plated into uncoated plates at a density of 8,000 cells per well. […] After 24 hours of treatment, cells were incubated with MTT [3-(4,5-dimethylthiazol-2-yl)-2,5-diphenyl-2H-tetrazolium bromide] (TCI America; 0.5 mg/ml, final concentration) for an additional 2 hours. The medium was then removed from each well and replaced with DMSO to dissolve the reduced MTT dye for subsequent colorimetric measurement of absorbance at 595 nm. Cell viabilities are calculated as percentages of that in the corresponding vehicle-treated control group.

[1] = biological target: T1, PH domain of Akt (GST-PH domain fusion protein) (Homo sapiens, UniProt P31749); experiment: Surface plasmon resonance binding, Akt PH domain; conditions: Table 3; binding affinities to the Akt PH domain; read-out: Kd
T1 construct: made in house
Excerpt: The cDNA fragments corresponding to the putative PH domain sequences of PHLPP1 (+115 to +372), PDK1 (+1225 to +1671), Akt1 (+1 to +447) and ILK (+538 to +646) were PCR-amplified using the plasmids pcDNA-HA-PHLPP1, pWZL-Neo-Myr-FLAG-PDPK1, pcDNA-HA-PKB-T308D-S473D, and pCMV-SPORT-ILK (Addgene) as templates. The PCR products were then cloned into EcoRI/XhoI sites of the pGEX-4T1 expression vector (GE Healthcare Life Sciences) to generate four constructs (pGEX-4T1-PHLPP1, pGEX-4T1-PDPK1, pGEX-4T1-AKT1, pGEX-4T1-ILK) for the expression of GST-PH domain fusion proteins. The mutated Akt1 Y38G PH domain was generated from pGEX-4T1-AKT1 by site-directed mutagenesis using the QuikChange II XL Site-Directed Mutagenesis Kit (Agilent Technologies). The expression and purification of GST-PH domain fusion proteins were performed essentially as described previously. Thomas et al., Curr Biol 12, 1256 (2002). The purified PH domains were analyzed by SDS-PAGE using an overloaded gel with purities were estimated to be >95% using ImageJ software.
Binding experiments were performed using a Biacore T100 system (GE Healthcare, Piscataway, N.J.). The GST-PH domain fusion proteins were immobilized on a CM5 S Sensorchip using Biacore's Amine Coupling Kit to a level of 17,000 response units. VE5 compounds and di-octanoyl PIP3 at concentrations ranging from 0.1 to 100 μM and 1 to 20 μm, respectively, were injected at a high flow rate (30 μL/min) over the biosensor surface for binding analyses. DMSO concentrations in all samples and running buffer were 1% (v/v) or less. Data were analyzed using Biacore T100 Evaluation Software.

LNCaP cells = experiment: MTT viability assay, LNCaP; format: cell-based; conditions: Homo sapiens, 1% FBS-containing or serum-free RPMI 1640 medium for 24 h
Description: as §1, §2

LNCaP and PC-3 cells = experiment: MTT viability assay, one value stated for both prostate cancer lines; format: cell-based; conditions: MTT, serum-free medium; one value for LNCaP and PC-3; read-out: IC50, antiproliferative effect / viability
Description: as §1
(§3) LNCaP cells were plated into poly-D-lysine-coated 96-well plates and PC-3 and LNCaP-abl cells into uncoated plates at the density of 5,000 cells per well in the presence of 10% FBS. Normal prostate epithelial cells were plated into uncoated plates at a density of 8,000 cells per well. Exposure to test agents in serum-free medium was initiated 24 hours later. After 24 hours of treatment, cells were incubated with MTT [3-(4,5-dimethylthiazol-2-yl)-2,5-diphenyl-2H-tetrazolium bromide] (TCI America; 0.5 mg/ml, final concentration) for an additional 2 hours. The medium was then removed from each well and replaced with DMSO to dissolve the reduced MTT dye for subsequent colorimetric measurement of absorbance at 595 nm. Cell viabilities are calculated as percentages of that in the corresponding vehicle-treated control group.

[2] = system: Normal prostate epithelial cells; experiment: Viability / apoptosis in normal prostate epithelial cells; format: cell-based
Description: as §1, §3

[3] = system: phosphorylation of Ser473 in Akt; experiment: Western blot of Akt phosphorylation at Ser473; format: cell-based; conditions: LNCaP and PC-3 cells, Thr308 not altered
Description: (§4) Cells were exposed to the test agents in 10-cm dishes for 24 hours and then collected by scraping. The cell pellets were washed once with PBS, and then lysed at 4° C. over 30 min of incubation in a sodium dodecyl sulfate (SDS) lysis buffer containing 1% SDS, 50 mM Tris HCl (pH 8.1), 10 mM EDTA and […] protease inhibitor cocktail (Sigma-Aldrich). The cell debris was pelleted by centrifugation for 20 min at 14,000×g, and 1 μl of each supernatant was used for determination of protein concentration using a colorimetric bicinchoninic assay (Pierce, Rockford, Ill.). The remaining sample was added to equal volume of 2×SDS-polyacrylamide gel electrophoresis sample loading buffer (62.5 mM Tris-HCl, pH 6.8, 4% SDS, 5% β-mercaptoethanol, 20% glycerol, 0.1% bromophenol blue), followed by incubation in boiling water for 5 min. Equivalent amounts of total protein were resolved in SDS-polyacrylamide gels, and then transferred to nitrocellulose membranes using a semidry transfer cell. The transblotted membrane was washed twice with Tris-buffered saline containing 0.1% Tween 20 (TBST). After blocking with TBST containing 5% nonfat milk for 40 min, the membrane was incubated with the appropriate primary antibody (1:1000) in TBST-1% nonfat milk at 4° C. overnight. The membrane was then washed three times with TBST for a total of 15 min, followed by incubation with goat anti-rabbit or anti-mouse IgG-horseradish peroxidase conjugates (1:2000) for 1 hour at room temperature and four washes with TBST for a total of 1 hour. The immunoblots were visualized by enhanced chemiluminescence (GE Healthcare Life Sciences).

[4] = system: mTORC2 (mTOR, rictor, SGK, PKCα); experiment: Western blot of mTORC2 components and downstream targets; format: cell-based
Description: as §4

[5] = PC-3, 1% FBS-containing or serum-free RPMI 1640 medium for 24 h, read-out: IC50 (μM) PC-3
[6] = Table 3, antitumor activities against PC-3 cells, read-out: IC50
[7] = PC-3, Table 4, effect of chain length on antiproliferative activity, read-out: IC50

T1 sequence (P31749 5-108 limits assumed): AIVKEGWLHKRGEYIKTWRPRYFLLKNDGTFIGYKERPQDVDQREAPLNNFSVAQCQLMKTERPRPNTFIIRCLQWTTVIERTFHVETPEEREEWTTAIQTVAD

SMILES | IC50 (PC-3 cells; [5]) [µM] | IC50 (LNCaP cells) [µM] | other results
CC(C)CCCC1(C)CCc2cc(O)cc(C(F)(F)F)c2O1 (racemic) [Compound 3, 2-methyl-2-(4-methylpentyl)-8-(trifluoro-methyl)chroman-6-ol] | 8 |  | IC50 (PC-3 cells; [6]): 8 µM; Kd [1]: 0.7 µM
CC(C)CCCC1(C)CCc2cc(O)ccc2O1 (racemic) [Compound 29, 2-methyl-2-(4-methylpentyl)chroman-6-ol] |  | 40 | 
COc1ccc2c(c1)CCC(C)(CCCC(C)C)O2 (racemic) [Compound 30, 6-methoxy-2-methyl-2-(4-methylpentyl)-chroman] |  | 40 | 
CC(C)CCCC1(C)CCc2c(O)cccc2O1 (racemic) [Compound 31, 2-methyl-2-(4-methylpentyl)chroman-5-ol] |  | 18 | 
CC(C)CCCC1(C)CCc2cc(N)ccc2O1 (racemic) [Compound 32, 2-methyl-2-(4-methylpentyl)chroman-6-amine] |  | > 50 | 
CC(C)CCCC1(C)CC(=O)c2cc(O)ccc2O1 (racemic) [Compound 33, 6-hydroxy-2-methyl-2-(4-methylpentyl)chroman-4-one] |  | 30 | 
Cc1cc2c(cc1O)C(=O)CC(C)(CCCC(C)C)O2 (racemic) [Compound 34, 6-hydroxy-2,7-dimethyl-2-(4-methylpentyl)chroman-4-one] |  | 30 | 
CC(C)CCCC1(C)CCc2ccc(O)c(O)c2O1 (racemic) [Compound 35, 2-methyl-2-(4-methylpentyl)chroman-7,8-diol] |  | > 50 | 
CC(C)CCCC1(C)CCc2c(O)cc(N3CCCC3)cc2O1 (racemic) [Compound 36, 2-methyl-2-(4-methylpentyl)-7-(pyrrolidin-1-yl)chroman-5-ol] |  | 21 | 
CC(C)CCCC1(C)CC(=O)c2c(O)cc(N3CCCC3)cc2O1 (racemic) [Compound 37, 5-hydroxy-2-methyl-2-(4-methylpentyl)-7-(pyrrolidin-1-yl)chroman-4-one] |  | > 50 | 
Cc1c(O)cc2c(c1C)OC(C)(CCCC(C)C)CC2 (racemic) [rac-VE5] |  | 20 | 
Cc1cc(O)cc2c1OC(C)(CCCC(C)C)CC2 (stereo not drawn) [Compound 2, 2,8-dimethyl-2-(4-methylpentyl)chroman-6-ol] | 9 |  | IC50 (PC-3 cells; [6]): 9 µM; Kd [1]: 0.6 µM
CC(C)CCCC1(C)CCc2cc(O)cc(O)c2O1 (stereo not drawn) [Compound 4, 2-methyl-2-(4-methylpentyl)chroman-6,8-diol] | 27 |  | IC50 (PC-3 cells; [6]): 27 µM; Kd [1]: 2 µM
COc1cc(O)cc2c1OC(C)(CCCC(C)C)CC2 (stereo not drawn) [Compound 5, 8-methoxy-2-methyl-2-(4-methylpentyl)-chroman-6-ol] | 28 |  | IC50 (PC-3 cells; [6]): 28 µM; Kd [1]: 3.1 µM
CC(C)CCCC1(C)CCc2cc(O)cc(F)c2O1 (stereo not drawn) [Compound 7, 8-fluoro-2-methyl-2-(4-methylpentyl)-chroman-6-ol] | 7 |  | IC50 (PC-3 cells; [6]): 7 µM; Kd [1]: 0.5 µM
CC(C)CCCC1(C)CCc2cc(O)cc(Br)c2O1 (stereo not drawn) [Compound 8, 8-bromo-2-methyl-2-(4-methylpentyl)-chroman-6-ol] | 7 |  | IC50 (PC-3 cells; [6]): 7 µM; Kd [1]: 0.65 µM
Cc1c(O)cc2c(c1C)NC(C)(CCCC(C)C)CC2 (stereo not drawn) [Compound 9, 2,7,8-trimethyl-2-(4-methylpentyl)-1,2,3,4-tetrahydroquinolin-6-ol] | 15 |  | IC50 (PC-3 cells; [6]): 15 µM; Kd [1]: 0.1 µM
CCCCCCCCC1(C)CCc2cc(O)cc(C)c2N1 (stereo not drawn) [Compound 10, 2,8-dimethyl-2-octyl-1,2,3,4-tetrahydro-quinolin-6-ol] | 8.5 |  | IC50 (PC-3 cells; [7]): 8.5 µM
COCCCC1(C)CCc2cc(O)cc(F)c2O1 (stereo not drawn) [Compound 11, 8-fluoro-2-(3-methoxypropyl)-2-methyl-chroman-6-ol] | > 30 |  | IC50 (PC-3 cells; [7]): > 30 µM
CCCCCCCCC1(C)CCc2cc(O)cc(F)c2O1 (stereo not drawn) [Compound 12, 8-fluoro-2-methyl-2-octylchroman-6-ol] | 8.5 |  | IC50 (PC-3 cells; [7]): 8.5 µM
CCc1ccc(CCC2(C)CCc3cc(O)cc(F)c3O2)cc1 (stereo not drawn) [Compound 13, 2-(4-ethylphenethyl)-8-fluoro-2-methyl-chroman-6-ol] | 9 |  | IC50 (PC-3 cells; [7]): 9 µM
Cc1c(O)cc2c(c1C)O[C@](C)(CCCC(C)CCCC(C)C)CC2 (stereo partly drawn) [Compound 27, (2R)-2-(4,8-dimethylnonyl)-2,7,8-trimethylchroman-6-ol] |  | 30 | 
Cc1c(C)c2c(c(C)c1O)CC[C@@](C)(CCCC(C)CCCC(C)C)O2 (stereo partly drawn) [Compound 28, (2R)-2-(4,8-dimethylnonyl)-2,5,7,8-tetramethylchroman-6-ol] |  | 42 | 
Cc1c(O)cc2c(c1C)O[C@](C)(CCC[C@H](C)CCC[C@H](C)CCCC(C)C)CC2 [γ-tocopherol, reference compound] |  |  | IC50 (LNCaP and PC-3 cells): 100 to 150 µM; apoptosis in normal prostate epithelial cells [2]: resistant; effect on phosphorylation of Akt at Ser473 [3]: dose-dependently reduced; abundance or phosphorylation of mTORC2 components and targets (mTOR, rictor, SGK, PKCα) [4]: no effect
